Results published in patent publication US8962608B2, “Cycloalkylnitrile pyrazole carboxamides as janus kinase inhibitors” (Merck Sharp & Dohme Corp., priority 2011, dated 2015).
Where a name gives a salt, the structure may show the parent alone.

What was measured:
[1] = target: JAK1 (recombinant purified GST-tagged catalytic domain) (Homo sapiens (Human), UniProt P23458); test: biochemical;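 note: biochemical assay with HTRF read-out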
[2] = target: JAK2 (recombinant purified GST-tagged catalytic domain) (Homo sapiens (Human), UniProt O60674); test: biochemical;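 note: biochemical JAK kinase assay with HTRF detection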
JAK2 (recombinant purified GST-tagged catalytic domain), sequence (O60674 849-1124): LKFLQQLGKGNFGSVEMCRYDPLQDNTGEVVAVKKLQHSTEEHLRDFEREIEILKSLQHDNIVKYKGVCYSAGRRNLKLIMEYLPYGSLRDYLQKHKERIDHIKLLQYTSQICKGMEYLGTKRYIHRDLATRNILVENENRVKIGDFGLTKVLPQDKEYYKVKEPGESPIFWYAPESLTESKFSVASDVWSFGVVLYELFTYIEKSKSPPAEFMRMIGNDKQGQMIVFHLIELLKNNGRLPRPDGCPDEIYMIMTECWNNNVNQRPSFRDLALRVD

JAK1 (recombinant purified GST-tagged catalytic domain), sequence (P23458 875-1153): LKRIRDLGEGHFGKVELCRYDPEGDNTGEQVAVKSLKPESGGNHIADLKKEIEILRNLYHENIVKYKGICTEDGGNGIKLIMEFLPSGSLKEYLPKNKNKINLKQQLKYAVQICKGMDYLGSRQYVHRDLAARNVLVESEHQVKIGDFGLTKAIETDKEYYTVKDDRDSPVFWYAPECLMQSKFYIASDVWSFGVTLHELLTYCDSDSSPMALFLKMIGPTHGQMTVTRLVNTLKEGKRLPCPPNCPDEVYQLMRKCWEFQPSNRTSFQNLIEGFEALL

SMILES	IC50 [1]	IC50 [2]
COC(C)(C)CN[C@H]1CCC(n2cc(C(N)=O)c(Nc3ccc(Cl)cc3)n2)[C@@H](C#N)C1 (single isomer, unassigned) [Example 28-228, 3-[(4-chlorophenyl)amino]-1-{(1S,2S,4S or 1R,2R,4R)-2-cyano-4-[(2-methoxy-2-methylpropyl)amino]cyclo-hexyl}-1H-pyrazole-4-carboxamide]	2 nM	48 nM
CNC(=O)O[C@H]1CCC(n2cc(C(N)=O)c(Nc3ccc(F)cc3)n2)[C@@H](C#N)C1 (mixture of isomers) [Example 34-9, (1S,3S,4S and 1R,3R,4R)-4-{4-carbamoyl-3-[(4-fluorophenyl)aminol-1H-pyrazol-1-yl}-3-cyanocyclohexyl methylcarbamate]	3 nM	51 nM
C[C@H](N[C@@H]1CC[C@H](n2cc(C(N)=O)c(Nc3ccc(OC(F)(F)F)cc3)n2)[C@@H](C#N)C1)C1CC1 (single isomer, unassigned) [Example 28-55, 1-[(1S,2S,4R or 1R,2R,4S)-2-cyano-4-{[(1S)-1-cyclopropylethyl]amino}cyclo-hexyl]-3-{[4-(trifluoromethoxy)phenyl]amino}-1H-pyrazole-4-carboxamide]	4 nM	200 nM
N#C[C@H]1C[C@H](NC2CCC2)CC[C@@H]1n1cc(C(N)=O)c(Nc2ccc(C(F)(F)F)cc2)n1 (single isomer, unassigned) [Example 30-14, 1-[(1S,2S,4R or 1R,2R,4S)-2-cyano-4-(cyclobutylamino)cyclohexyl]-3-{[4-(trifluoro-methyl)phenyl]amino}-1H-pyrazole-4-carboxamide]	51 nM	1050 nM
N#C[C@H]1C[C@H](N2CCC2)CC[C@@H]1n1cc(C(N)=O)c(Nc2ccc(C(F)F)nc2)n1 (single isomer, unassigned) [Example 28-50, 1-[(1S,2S,4R or 1R,2R,4S)-4-azetidin-1-yl-2-cyanocyclohexyl]-3-{[6-(difluoromethyl)pyridin-3-yl]amino}-1H-pyrazole-4-carboxamide]	2 nM	47 nM
N#C[C@H]1CCCC[C@@H]1n1cc(C(N)=O)c(Nc2ccc(CN)cc2)n1 (racemic) [Example 17-45, 3-{[4-(aminomethyl)phenyl]amino}-1-[(1S,2S and 1R,2R)-2-cyanocyclohexyl]-1H-pyrazole-4-carboxamide]	3 nM	10 nM
N#C[C@H]1C[C@@H](NC2(CO)CC2)CCC1n1cc(C(N)=O)c(Nc2ccc(Cl)cc2)n1 (single isomer, unassigned) [Example 28-223, 3-[(4-chlorophenyl)amino]-1-[(1S,2S,4S or 1R,2R,4R)-2-cyano-4-{[1-(hydroxymethyl)cyclopropyl]a-mino}cyclohexyl]-1H-pyrazole-4-carboxamide]	2 nM	14 nM
N#C[C@H]1C[C@@H](C(=O)NC(C2CC2)C2CC2)CC[C@@H]1n1cc(C(N)=O)c(Nc2ccc(Cl)cc2)n1 (single isomer, unassigned) [Example 35-21, 3-[(4-chlorophenyl)amino]-1-{(1S,2S,4S or 1R,2R,4R)-2-cyano-4-[(dicyclopropylmethyl)carbamoyl]cyclohexyl}-1H-pyrazole-4-carboxamide]	25 nM	500 nM
N#C[C@H]1CCCC[C@@H]1n1cc(C(N)=O)c(Nc2ccnnc2)n1 (single isomer, unassigned) [Example 17-53, 1-[(1S,2S or 1R,2R)-2-cyanocyclohexyl]-3-(pyridazin-4-ylamino)-1H-pyrazole-4-carboxamide]	3 nM	28 nM
N#C[C@@H]1CCCC[C@H]1n1cc(C(N)=O)c(Nc2ccc(S(=O)(=O)Nc3ccccn3)cc2)n1 (single isomer, unassigned) [Example 17-67, 1-[(1R,2R or 1S,2S)-2-cyanocyclohexyl]-3-{[4-(pyridin-2-ylsulfamoyl)phenyl]amino}-1H-pyrazole-4-carboxamide]	3 nM	9 nM
N#C[C@H]1C[C@H](O)CC[C@@H]1n1cc(C(N)=O)c(Nc2ccc(C(F)F)nc2)n1 (single isomer, unassigned) [Example 25-16, 1-[(1S,2S,4R or 1R,2R,4S)-2-cyano-4-hydroxycyclohexyl]-3-{[6-(difluoromethyl)pyridin-3-yl]amino}-1H-pyrazole-4-carboxamide]	3 nM	10 nM
N#C[C@H]1CCCC[C@@H]1n1cc(C(N)=O)c(Nc2cnc3cc(F)ccc3c2)n1 (single isomer, unassigned) [Example 17-41, 1-[(1S,2S or 1R,2R)-2-cyanocyclohexyl]-3-[(7-fluoroquinolin-3-yl)amino]-1H-pyrazole-4-carboxamide]	2 nM	16 nM
CC1CN([C@H]2CC[C@H](n3cc(C(N)=O)c(Nc4ccccc4)n3)[C@@H](C#N)C2)C1 (single isomer, unassigned) [Example 28-141, 1-[(1S,2S,4S or 1R,2R,4R)-2-cyano-4-(3-methylazetidin-1-yl)cyclohexyl]-3-(phenylamino)-1H-pyrazole-4-carboxamide]	1 nM	44 nM

More lines, in order of falling IC50 [1], values ahead:

IC50 [1]	IC50 [2]	SMILES
1 nM	13 nM	CN(C)S(=O)(=O)CCNC1CC[C@H](n2cc(C(N)=O)c(Nc3ccc(S(=O)(=O)C(F)(F)F)cc3)n2)[C@@H](C#N)C1 (single isomer, unassigned) [Example 28-154, 1-[(1S,2S or 1R,2R)-2-cyano-4-{[2-(dimethylsulfamoyl)ethyl]a-mino}cyclohexyl]-3-({4-[(trifluoromethyl)sulfonyl]phen-yl}amino)-1H-pyrazole-4-carboxamide]
1 nM	35 nM	N#C[C@H]1C[C@@H](N)CCC1n1cc(C(N)=O)c(Nc2ccc(F)cc2)n1 (mixture of isomers) [Example 29, (1S,3S,4S and 1R,3R,4R)-4-{4-Carbamoyl-3-[(4-fluorophenyl)amino]-1H-pyrazol-1-yl}-3-cyanocyclohexanaminium trifluoroacetate]
1 nM	9 nM	Cc1cccc(C)c1NS(=O)(=O)c1ccc(Nc2nn([C@H]3CCCC[C@@H]3C#N)cc2C(N)=O)cc1 (single isomer, unassigned) [Example 17-88, 1-[(1R,2R or 1S,2S)-2-cyanocyclohexyl]-3-({4-[(2,6-dimethylphenyl)sulfamoyl]phenyl}amino)-1H-pyrazole-4-carboxamide]
0.9 nM	104 nM	C[C@H](NC1CC[C@H](n2cc(C(N)=O)c(Nc3ccc(C(F)(F)F)cc3)n2)[C@@H](C#N)C1)C1CC1 (single isomer, unassigned) [Example 28-191, 1-[(1S,2S or 1R,2R)-2-cyano-4-{[(1S)-1-cyclopropylethyl]amino}cyclo-hexyl]-3-{[4-(trifluoromethyl)phenyl]amino}-1H-pyrazole-4-carboxamide]
0.85 nM	9 nM	CCNC(=O)O[C@@H]1CCC(n2cc(C(N)=O)c(Nc3ccc(F)cc3)n2)[C@@H](C#N)C1 (mixture of isomers) [Example 34-7, (1R,3S,4S and 1S,3R,4R)-4-{4-carbamoyl-3-[(4-fluorophenyl)aminol-1H-pyrazol-1-yl}-3-cyanocyclohexyl ethylcarbamate]
0.7 nM	41 nM	N#C[C@H]1C[C@@H](N2CCC2)CC[C@@H]1n1cc(C(N)=O)c(Nc2ccc(Cl)cc2)n1 (single isomer, unassigned) [Example 28-100, 1-[(1S,2S,4S or 1R,2R,4R)-4-azetidin-1-yl-2-cyanocyclohexyl]-3-[(4-chlorophenyl)amino]-1H-pyrazole-4-carboxamide]
0.6 nM	17 nM	COCCN(C)[C@H]1CC[C@H](n2cc(C(N)=O)c(Nc3ccc(S(=O)(=O)C(F)(F)F)cc3)n2)[C@@H](C#N)C1 (single isomer, unassigned) [Example 28-149, 1-{(1S,2S,4S or 1R,2R,4R)-2-cyano-4-[(2-methoxy-ethyl)(methyl)amino]cyclohexyl}-3-({4-[(trifluoromethyl)sulfonyl]phen-yl}amino)-1H-pyrazole-4-carboxamide]
0.5 nM	36 nM	N#C[C@H]1C[C@@H](N2CC3(CCC3)C2)CC[C@@H]1n1cc(C(N)=O)c(Nc2ccnc(F)c2)n1 (single isomer, unassigned) [Example 28-133, 1-[(1S,2S,4S or 1R,2R,4R)-4-(2-azaspiro[3.3]hept-2-yl)-2-cyanocyclohexyl]-3-[(2-fluoropyridin-4-yl)amino]-1H-pyrazole-4-carboxamide]
0.5 nM	5 nM	N#C[C@H]1C[C@@H](O)CC[C@@H]1n1cc(C(N)=O)c(Nc2ccc(OC(F)(F)F)cc2)n1 (single isomer, unassigned) [Example 33-1, 1-((1S,2S,4S or 1R,2R,4R)-2-Cyano-4-hydroxycyclohexyl)-3-((4-(trifluoromethoxy)phenyl)amino)-1H-pyrazole-4-carboxamide]
0.5 nM	3 nM	N#Cc1ccc(Nc2nn([C@H]3CC[C@H](O)C[C@@H]3C#N)cc2C(N)=O)cc1 (single isomer, unassigned) [Example 33-6, 1-[(1S,2S,4S or 1R,2R,4R)-2-cyano-4-hydroxycyclohexyl]-3-[(4-cyanophenyl)amino]-1H-pyrazole-4-carboxamide]
0.4 nM	23 nM	CC(C)(C)N[C@@H]1CC[C@H](n2cc(C(N)=O)c(Nc3ccc([C@H](O)C(F)(F)F)cc3)n2)[C@@H](C#N)C1 (single isomer, unassigned) [Example 28-52, 1-[(1S,2S,4R or 1R,2R,4S)-4-(tert-butylamino)-2-cyanocyclohexyl]-3-({4-[(1S or 1R)-2,2,2-trifluoro-1-hydroxyethyl]phenyl}amino)-1H-pyrazole-4-carboxamide]
0.35 nM	4 nM	CS(=O)(=O)CCNC1CC[C@H](n2cc(C(N)=O)c(Nc3ccc(S(=O)(=O)C(F)(F)F)cc3)n2)[C@@H](C#N)C1 (single isomer, unassigned) [Example 28-148, 1-[(1S,2S or 1R,2R)-2-cyano-4-{[2-(methylsulfonyl)eth-yl]amino}cyclohexyl]-3-({4-[(trifluoromethyl)sulfon-yl]phenyl}amino)-1H-pyrazole-4-carboxamide]
